Where two headings read alike, the source gives them in different places. Each block holds one molecule with its values, some of them ahead of it.
What was measured:
SETD7 = target: T1, SETD7 (Homo sapiens, UniProt Q8WTS6); test: Methyl transferase scintillation proximity assay; assay type: biochemical; settings: average of two measurements, read-out: MTases Inhibition (%)
T1 construct: purchased DiscoverX BROMOscan (bromodomains); SGC in-house methyltransferase panel
T1 sequence (Q8WTS6 1-366): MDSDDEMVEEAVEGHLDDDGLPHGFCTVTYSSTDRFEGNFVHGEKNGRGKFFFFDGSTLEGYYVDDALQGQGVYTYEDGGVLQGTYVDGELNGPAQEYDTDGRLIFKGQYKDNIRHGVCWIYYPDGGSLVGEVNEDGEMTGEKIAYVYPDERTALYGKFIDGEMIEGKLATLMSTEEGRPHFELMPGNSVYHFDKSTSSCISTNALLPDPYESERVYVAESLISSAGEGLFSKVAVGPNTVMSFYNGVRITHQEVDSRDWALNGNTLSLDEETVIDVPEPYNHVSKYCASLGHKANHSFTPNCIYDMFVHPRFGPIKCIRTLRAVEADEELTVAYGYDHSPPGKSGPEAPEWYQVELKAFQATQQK
Description: (§1) Assays measuring lysine and arginine methyl transferase activity have been described in Scheer et al.. A radioactivity-based scintillation proximity assay was used to monitor incorporation of a tritium-labeled methyl group into the biotinylated substrate of the methyl transferase. A 10-μl reaction containing ^3H-SAM and substrate at concentrations close to the apparent Km values for each enzyme was prepared. The reactions were quenched with 10 μl of 7.5 M guanidine hydrochloride; 180 μl of 20 mM Tris buffer (pH 8.0) were added; and the mixture was transferred to a 96-well FlashPlate and incubated for 1 h. The counts per minute (CPM) was measured on a TopCount plate reader. The CPM in the absence of compound or enzyme was defined as 100% activity and background (0%), respectively, for each dataset.

SETD2 = target: T2, SETD2 (Homo sapiens, UniProt Q9BYW2); test: Methyl transferase scintillation proximity assay; assay type: biochemical; settings: average of two measurements, read-out: MTases Inhibition (%)
T2 construct: purchased DiscoverX BROMOscan (bromodomains); SGC in-house methyltransferase panel
Description: as §1

FALZ = FALZ (Homo sapiens, UniProt Q12830); test: BROMOscan ligand-binding assay
Description: (§2) BROMOscan is a binding assay based on the well-known KINOMEscan technology. This assay measures the binding of a DNA-tagged bromodomain to an immobilized BRD ligand. If an inhibitor is present, it will compete with the bromodomain binding to the immobilized ligand, resulting in reduction of a quantitative PCR (qPCR) signal in a dose-dependent manner.

BRD1 = target: T3, BRD1 (Homo sapiens, UniProt O95696); test: BROMOscan ligand-binding assay
T3 sequence (O95696 562-666 limits assumed): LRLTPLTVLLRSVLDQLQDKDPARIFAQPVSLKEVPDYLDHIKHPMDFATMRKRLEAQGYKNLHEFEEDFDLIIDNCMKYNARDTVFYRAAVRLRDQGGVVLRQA
Description: as §2

BRDT(1,2) = BRDT(1,2) (Homo sapiens, UniProt Q58F21); test: BROMOscan ligand-binding assay
Description: as §2

SMARCA4 = SMARCA4 (Homo sapiens, UniProt P51532); test: BROMOscan ligand-binding assay; settings: SMARCA4
Description: as §2

BRD4(1,2) = BRD4(1,2) (Homo sapiens, UniProt O60885); test: BROMOscan ligand-binding assay
Description: as §2

BRDT(1) = BRDT(1) (Homo sapiens, UniProt Q58F21); test: BROMOscan ligand-binding assay
Description: as §2

CECR2 = CECR2 (Homo sapiens, UniProt Q9BXF3); test: BROMOscan ligand-binding assay
Description: as §2

EP300 = target: T4, EP300 (Homo sapiens, UniProt Q09472); test: BROMOscan ligand-binding assay
T4 sequence (Q09472 1049-1156 limits assumed): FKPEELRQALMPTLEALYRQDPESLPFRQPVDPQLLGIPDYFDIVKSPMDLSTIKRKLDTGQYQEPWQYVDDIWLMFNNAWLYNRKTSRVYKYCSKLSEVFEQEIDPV
Description: as §2

BRPF3 = target: T5, BRPF3 (Homo sapiens, UniProt Q9ULD4); test: BROMOscan ligand-binding assay
T5 sequence (Q9ULD4 589-693 limits assumed): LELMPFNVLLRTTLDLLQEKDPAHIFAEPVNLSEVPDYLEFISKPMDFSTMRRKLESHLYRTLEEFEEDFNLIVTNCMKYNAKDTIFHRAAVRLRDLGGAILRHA
Description: as §2

BRD9 = target: T6, BRD9 (Homo sapiens, UniProt Q9H8M2); test: BROMOscan ligand-binding assay
T6 sequence (Q9H8M2 136-240 limits assumed): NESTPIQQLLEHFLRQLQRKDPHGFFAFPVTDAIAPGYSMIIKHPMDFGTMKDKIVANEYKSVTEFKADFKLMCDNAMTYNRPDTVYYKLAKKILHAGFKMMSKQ
Description: as §2

[1] = KD (BROMOscan), sheet prints no unit (nM)

Chain of CECR2 (Q9BXF3 434-538 limits assumed): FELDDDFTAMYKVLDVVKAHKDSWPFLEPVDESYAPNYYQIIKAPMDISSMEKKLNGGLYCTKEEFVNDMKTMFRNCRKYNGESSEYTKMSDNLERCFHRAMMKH
Chain of SMARCA4 (P51532 1453-1564 limits assumed): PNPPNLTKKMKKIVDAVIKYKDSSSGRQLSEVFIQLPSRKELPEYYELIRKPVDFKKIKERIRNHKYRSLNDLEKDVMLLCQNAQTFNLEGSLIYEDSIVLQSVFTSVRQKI
T2 sequence (Q9BYW2 whole entry): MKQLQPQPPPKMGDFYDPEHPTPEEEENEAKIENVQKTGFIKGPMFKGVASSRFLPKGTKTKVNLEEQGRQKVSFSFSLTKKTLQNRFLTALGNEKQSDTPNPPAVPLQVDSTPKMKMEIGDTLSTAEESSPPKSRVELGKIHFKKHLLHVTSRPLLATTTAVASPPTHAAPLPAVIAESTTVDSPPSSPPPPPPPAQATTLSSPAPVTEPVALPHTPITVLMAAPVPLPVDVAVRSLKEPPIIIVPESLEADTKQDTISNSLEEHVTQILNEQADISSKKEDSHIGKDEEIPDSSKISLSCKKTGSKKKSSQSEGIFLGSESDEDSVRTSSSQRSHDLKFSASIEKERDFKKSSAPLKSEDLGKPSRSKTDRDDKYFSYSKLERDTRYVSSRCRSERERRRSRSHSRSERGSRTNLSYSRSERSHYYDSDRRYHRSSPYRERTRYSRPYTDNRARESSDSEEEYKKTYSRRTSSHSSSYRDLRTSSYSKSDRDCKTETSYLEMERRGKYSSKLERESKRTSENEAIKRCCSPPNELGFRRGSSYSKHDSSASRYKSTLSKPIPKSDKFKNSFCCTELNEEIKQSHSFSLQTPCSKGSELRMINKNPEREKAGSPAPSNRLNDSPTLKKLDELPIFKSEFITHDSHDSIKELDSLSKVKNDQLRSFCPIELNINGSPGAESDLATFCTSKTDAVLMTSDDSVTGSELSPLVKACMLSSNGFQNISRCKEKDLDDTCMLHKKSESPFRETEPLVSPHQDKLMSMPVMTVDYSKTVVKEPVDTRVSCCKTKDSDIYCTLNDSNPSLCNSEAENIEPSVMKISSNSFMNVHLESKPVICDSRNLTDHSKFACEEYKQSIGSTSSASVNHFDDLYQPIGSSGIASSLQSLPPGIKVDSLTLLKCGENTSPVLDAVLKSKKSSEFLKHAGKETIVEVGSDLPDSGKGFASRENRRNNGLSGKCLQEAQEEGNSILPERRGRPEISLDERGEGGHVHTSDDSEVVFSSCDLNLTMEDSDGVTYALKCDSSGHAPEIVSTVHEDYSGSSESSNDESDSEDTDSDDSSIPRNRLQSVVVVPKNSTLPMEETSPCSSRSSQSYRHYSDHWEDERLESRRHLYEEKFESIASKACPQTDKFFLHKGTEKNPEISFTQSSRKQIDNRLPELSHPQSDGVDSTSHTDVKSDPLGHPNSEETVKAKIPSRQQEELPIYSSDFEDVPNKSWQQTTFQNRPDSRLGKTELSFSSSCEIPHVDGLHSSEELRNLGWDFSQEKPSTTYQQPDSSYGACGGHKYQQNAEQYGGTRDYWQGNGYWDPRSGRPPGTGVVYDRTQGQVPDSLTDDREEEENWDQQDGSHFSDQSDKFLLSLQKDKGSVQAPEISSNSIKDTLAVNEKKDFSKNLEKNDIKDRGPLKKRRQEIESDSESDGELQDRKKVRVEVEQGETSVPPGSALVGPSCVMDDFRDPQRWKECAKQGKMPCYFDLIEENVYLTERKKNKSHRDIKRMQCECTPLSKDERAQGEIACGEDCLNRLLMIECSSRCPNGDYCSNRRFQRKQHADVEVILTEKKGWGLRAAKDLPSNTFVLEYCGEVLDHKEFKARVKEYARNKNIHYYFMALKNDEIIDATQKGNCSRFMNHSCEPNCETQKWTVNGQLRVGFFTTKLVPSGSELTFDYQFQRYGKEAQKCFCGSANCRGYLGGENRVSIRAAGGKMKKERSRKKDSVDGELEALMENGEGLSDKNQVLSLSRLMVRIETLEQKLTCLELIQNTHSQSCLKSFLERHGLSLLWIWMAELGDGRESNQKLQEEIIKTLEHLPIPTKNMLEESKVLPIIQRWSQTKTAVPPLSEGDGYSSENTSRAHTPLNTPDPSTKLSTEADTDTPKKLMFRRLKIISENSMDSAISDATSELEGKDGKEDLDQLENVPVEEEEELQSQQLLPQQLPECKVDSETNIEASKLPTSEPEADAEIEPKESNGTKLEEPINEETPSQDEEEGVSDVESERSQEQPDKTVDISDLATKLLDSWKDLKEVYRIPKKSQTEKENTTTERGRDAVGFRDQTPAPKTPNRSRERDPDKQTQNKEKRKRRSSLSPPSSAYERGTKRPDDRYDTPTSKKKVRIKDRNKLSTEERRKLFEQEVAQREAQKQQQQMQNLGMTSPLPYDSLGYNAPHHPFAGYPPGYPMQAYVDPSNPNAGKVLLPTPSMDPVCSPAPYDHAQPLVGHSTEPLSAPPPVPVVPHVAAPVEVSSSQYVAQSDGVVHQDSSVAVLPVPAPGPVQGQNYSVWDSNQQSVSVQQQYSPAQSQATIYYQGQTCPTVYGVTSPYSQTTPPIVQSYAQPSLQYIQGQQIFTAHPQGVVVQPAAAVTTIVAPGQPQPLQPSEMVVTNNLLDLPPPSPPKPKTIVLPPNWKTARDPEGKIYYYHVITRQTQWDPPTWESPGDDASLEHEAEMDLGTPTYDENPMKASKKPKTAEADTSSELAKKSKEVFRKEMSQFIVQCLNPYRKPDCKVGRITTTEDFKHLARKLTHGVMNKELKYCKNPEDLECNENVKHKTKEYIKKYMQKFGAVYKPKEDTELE

Compound: Cc1nnc2c3ccccc3c(N[C@@H](C)[C@H](c3ccccc3)N(C)C)nn12 [L-Moses]
- inhibition at 10 µM (SETD7): 7%
- inhibition at 10 µM (SETD2): 11%

Compound: CCCS(=O)(=O)c1nc(NC2CC2)cc(-c2ccc3c(ccn3C3CC(C)(C)NC(C)(C)C3)c2)n1 [NVS-CECR2-1]
- Kd (FALZ): 360 nM
- Kd (BRD1): > 30 µM
- Kd (BRDT(1,2)): 14000 nM
- Kd (BRD4(1,2)): 12 µM
- Kd (BRDT(1)): > 30000 nM
- Kd (CECR2): 14 nM
- Kd (EP300): > 30000 nM
- Kd (BRPF3): > 30000 nM
- Kd (BRD9): 2100 nM

Compound: COc1cc2c(cc1NS(=O)(=O)c1ccc(Br)cc1C)n(C)c(=O)n2C [OF-1]
- Kd (FALZ; FALZ): 1600 nM
- Kd (BRD1; BRD1): 0.36 µM
- Kd (BRDT(1,2); BRDT(1,2)): 11000 nM
- Kd (SMARCA4): 16 µM
- Kd (BRDT(1); BRDT(1)): 3500 nM
- Kd (CECR2; CECR2): > 50000 nM
- Kd (CECR2; read-out: KD (BROMOscan), sheet prints no unit (nM)): > 30000 nM
- Kd (EP300; EP300): 47000 nM
- Kd (BRD9; BRD9): 2900 nM

Compound: O=C(C=CN1[C@H]2CC[C@@H]1c1ncnc(NC3CC3)c1C2)c1ccccc1O [PFI-3 D1]
- Kd (FALZ; BROMOscan, FALZ): > 30000 nM
- Kd (BRD1; BROMOscan, BRD1): > 30 µM
- Kd (BRDT(1,2); BROMOscan, BRDT(1,2)): > 30000 nM
- Kd (SMARCA4; BROMOscan): 0.046 µM
- Kd (BRD4(1,2); BROMOscan, BRD4(1,2)): > 30 µM
- Kd (BRDT(1); BROMOscan, BRDT(1)): 24000 nM
- Kd (CECR2; BROMOscan, CECR2): > 30000 nM
- Kd (EP300; BROMOscan, EP300): > 30000 nM
- Kd (BRPF3; BROMOscan, BRPF3): > 30000 nM
- Kd (BRD9; BROMOscan, BRD9): > 30000 nM

Compound: O=C(C=CN1CC2CC1CN2c1ccccn1)c1ccccc1O (centres unmarked) [PFI-3]
- Kd (FALZ; [1]): > 30000 nM
- Kd (FALZ; KD, FALZ): > 100000 nM
- Kd (BRDT(1,2); [1]): > 30000 nM
- Kd (BRDT(1,2); KD, BRDT(1,2)): > 100000 nM
- Kd (BRDT(1); [1]): > 30000 nM
- Kd (BRDT(1); KD, BRDT(1)): > 100000 nM
- Kd (CECR2; [1]): > 30000 nM
- Kd (CECR2; KD, CECR2): > 100000 nM
- Kd (EP300; [1]): > 30000 nM
- Kd (EP300; KD, EP300): > 100000 nM
- Kd (BRPF3; [1]): > 30000 nM
- Kd (BRPF3; KD, BRPF3): > 100000 nM
- Kd (BRD9; [1]): > 30000 nM
- Kd (BRD9; KD, BRD9): > 100000 nM

Compound: O=C(O)c1ccccc1O [Salicylic Acid]
- Kd (FALZ; KD, FALZ): > 1.4e+07 nM
- Kd (BRD1): > 14000 µM
- Kd (BRDT(1,2); KD, BRDT(1,2)): 6.1e+06 nM
- Kd (SMARCA4; KD): 320 µM
- Kd (BRD4(1,2)): > 14000 µM
- Kd (BRDT(1); KD, BRDT(1)): > 1.4e+07 nM
- Kd (CECR2; KD, CECR2): > 1.4e+07 nM
- Kd (EP300; KD, EP300): > 1.4e+07 nM
- Kd (BRPF3; KD, BRPF3): > 1.4e+07 nM
- Kd (BRD9; KD, BRD9): > 1.4e+07 nM

Compound: CN(C)CCCOc1ccc(-c2cc(NCCCn3cccn3)nc(S(C)(=O)=O)n2)cc1 [TP-238]
- inhibition at 10 µM (SETD7): -1%
- inhibition at 10 µM (SETD2): 19%

The next lines start with the values.

- Kd (FALZ; BROMOscan, FALZ): > 50000 nM
- Kd (BRD1; BRD1): 22 µM
- Kd (BRDT(1,2); BROMOscan, BRDT(1,2)): 21000 nM
- Kd (SMARCA4; BROMOscan): > 50 µM
- Kd (BRD4(1,2); BROMOscan, BRD4(1,2)): 41 µM
- Kd (BRDT(1); BROMOscan, BRDT(1)): > 50000 nM
- Kd (CECR2; BROMOscan, CECR2): > 50000 nM
- Kd (EP300; BROMOscan, EP300): > 50000 nM
- Kd (BRPF3; BROMOscan, BRPF3): > 50000 nM
Compound: Cc1cc(=O)n(C)c2cc(N3C(=O)CC[C@H](NS(=O)(=O)CC(C)C)[C@H]3c3ccc(Cl)cc3)ccc12 [LP-99]

- Kd (FALZ; FALZ): 2300 nM
- Kd (BRD1; BRD1): 0.046 µM
- Kd (BRDT(1,2); BRDT(1,2)): > 50000 nM
- Kd (SMARCA4): 41 µM
- Kd (BRD4(1,2); BRD4(1,2)): 15 µM
- Kd (BRDT(1); BRDT(1)): 4800 nM
- Kd (CECR2; CECR2): 12000 nM
- Kd (EP300; EP300): 15000 nM
- Kd (BRD9; BRD9): 160 nM
Compound: COc1cc(C#N)ccc1S(=O)(=O)Nc1ccc2c(c1)cc(C)c(=O)n2C [NI 57]

- Kd (FALZ; KD, BROMOscan, FALZ): 81000 nM
- Kd (BRD1): 21 µM
- Kd (BRDT(1,2); KD, BROMOscan, BRDT(1,2)): 3100 nM
- Kd (BRD4(1,2)): 3.4 µM
- Kd (BRDT(1); KD, BROMOscan, BRDT(1)): 2600 nM
- Kd (CECR2; KD, BROMOscan, CECR2): 7900 nM
- Kd (BRPF3; [1]): > 30000 nM
- Kd (BRPF3; KD, BROMOscan, BRPF3): > 100000 nM
- Kd (BRD9; KD, BROMOscan, BRD9): 6100 nM
Compound: COc1ccc(CCc2nc3cc(-c4c(C)noc4C)ccc3n2C[C@H](C)N2CCOCC2)cc1Cl [SGC-CBP30]

From paper PMC6478789, “A chemical toolbox for the study of bromodomains and epigenetic signaling” (Nature Communications, 2019)
